# Experimental data reported in ChEMBL document CHEMBL5108010, “Structure-activity relationship studies on divalent naphthalene diimide G quadruplex ligands with anticancer and antiparasitic activity” (Bioorg Med Chem, 2022).
# “And” between values parts separate entries of the source, which are not always exact repeats. Identical values can stand only once.
# Tests used:
# [1] = (§1) Cytotoxicity against human MRC5 cells assessed as inhibition of cell proliferation incubated for 72 hrs by alamar blue assay; format: toxicity, cell-based; conditions: human, MRC5 cells
# Quadruplex DNA [2] = assay: Binding affinity to G-quadruplex telomeric DNA F21T (5'-duplex GGG TTAGGG TTAGGG TTAGGG-3') (unknown origin) assessed as stabilization by measuring change in melting temperature at 10 uM in potassium buffer by FRET melting assay; format: nucleic-acid assay
# HeLa = assay: Cytotoxicity against human HeLa cells assessed as inhibition of cell proliferation incubated for 72 hrs by alamar blue assay; format: functional, cell-based
# Quadruplex DNA [3] = assay: Binding affinity to Trypanosoma brucei G-quadruplex telomeric DNA FEBR1T (5'-duplex GGG TTAGGG TTAGGG TTAGGG-3') assessed as stabilization by measuring change in melting temperature at 10 uM in potassium buffer by FRET melting assay; format: nucleic-acid assay
# Leishmania major = assay: Antileishmanial activity against Leishmania major (MHOM/IL/80/Friedlin) promastigotes assessed as inhibition of parasite growth incubated for 72 hrs by MTT assay; format: functional, organism-based
# [4] = Selectivity index, ratio of IC50 for cytotoxicity against human MRC5 cells to IC50 for antitrypanosomal activity against Trypanosoma brucei bloodstream form; format: toxicity, cell-based; conditions: for selectivity ratio: MRC5 cells versus Trypanosoma brucei bloodstream form, read-out: Ratio IC50
# [5] = Binding affinity to hairpin duplex DNA F10T (unknown origin) assessed as stabilization by measuring change in melting temperature at 10 uM in potassium buffer by FRET melting assay
# Trypanosoma brucei = assay: Antitrypanosomal activity against Trypanosoma brucei bloodstream form assessed as inhibition of parasite growth incubated for 72 hrs by alamar blue assay; format: functional, organism-based
# [6] = Selectivity index, ratio of IC50 for cytotoxicity against human MRC5 cells to IC50 for antileishmanial activity against Leishmania major (MHOM/IL/80/Friedlin) promastigotes; format: toxicity, cell-based; conditions: read-out: Ratio IC50
# Quadruplex DNA [7] = assay: Binding affinity to G-quadruplex telomeric DNA FMycT (5'-duplex GGG TTAGGG TTAGGG TTAGGG-3') (unknown origin) assessed as stabilization by measuring change in melting temperature at 10 uM in potassium buffer by FRET melting assay; format: nucleic-acid assay
# Quadruplex DNA [8] = assay: Binding affinity to G-quadruplex telomeric DNA F21T (5'-duplex GGG TTAGGG TTAGGG TTAGGG-3') (unknown origin) assessed as stabilization by measuring change in melting temperature at 10 uM in sodium buffer by FRET melting assay; format: nucleic-acid assay
# [9] = Selectivity index, ratio of IC50 for cytotoxicity against human MRC5 cells to IC50 for cytotoxicity against human HeLa cells; format: toxicity, cell-based; conditions: for selectivity ratio: MRC5 cells versus HeLa cells, read-out: Ratio IC50
# Quadruplex DNA [10] = assay: Binding affinity to G-quadruplex telomeric DNA FMycT (5'-duplex GGG TTAGGG TTAGGG TTAGGG-3') (unknown origin) assessed as stabilization by measuring change in melting temperature at 1 uM in potassium buffer by FRET melting assay; format: nucleic-acid assay
# Quadruplex DNA [11] = assay: Binding affinity to G-quadruplex telomeric DNA F21T (5'-duplex GGG TTAGGG TTAGGG TTAGGG-3') (unknown origin) assessed as stabilization by measuring change in melting temperature at 1 uM in potassium buffer by FRET melting assay; format: nucleic-acid assay
# Quadruplex DNA [12] = assay: Binding affinity to G-quadruplex telomeric DNA F21T (5'-duplex GGG TTAGGG TTAGGG TTAGGG-3') (unknown origin) assessed as stabilization by measuring change in melting temperature at 1 uM in sodium buffer by FRET melting assay; format: nucleic-acid assay
# [13] = Binding affinity to hairpin duplex DNA F10T (unknown origin) assessed as stabilization by measuring change in melting temperature at 1 uM in potassium buffer by FRET melting assay
# Quadruplex DNA [14] = assay: Binding affinity to Trypanosoma brucei G-quadruplex telomeric DNA FEBR1T (5'-duplex GGG TTAGGG TTAGGG TTAGGG-3') assessed as stabilization by measuring change in melting temperature at 1 uM in potassium buffer by FRET melting assay; format: nucleic-acid assay
# MRC5 = assay: as §1; format: toxicity, cell-based; conditions: mrc5
# [15] = Leishmania major, MHOM/IL/80/Friedlin, 72 h
SMILES,ΔTm (Quadruplex DNA [2]),ΔTm (Quadruplex DNA [3]) [°C],ΔTm [5],"IC50 (Trypanosoma brucei; Trypanosoma brucei, 72 h) [nM]",ΔTm (Quadruplex DNA [7]),ΔTm (Quadruplex DNA [8]),IC50 at 72 h [1] [nM],"IC50 (HeLa; Homo sapiens, HeLa, 72 h) [nM]",IC50 (Leishmania major; [15]) [nM],selectivity ratio [4],selectivity ratio [6],selectivity ratio [9],also measured
C[n+]1cccc(N2C(=O)c3ccc4c5c(ccc(c35)C2=O)C(=O)N(c2ccc[n+](C)c2)C4=O)c1,0.5 °C,0.7,0 °C,44100,-1.6 °C,1.3 °C,18200,> 63900,> 63900,0.41,< 0.28,–,–
C[n+]1cccc2cc(N3C(=O)c4ccc5c6c(ccc(c46)C3=O)C(=O)N(c3ccc4c(ccc[n+]4C)c3)C5=O)ccc21,4.6 °C,2.5,1.4 °C,3710,11 °C,3.5 °C,1150,37000,16800,0.3,0.068,0.031,–
CN1CCN(CCCN2C(=O)c3ccc4c5c(ccc(c35)C2=O)C(=O)N(CCCN2CCN(C)CC2)C4=O)CC1,20 °C,11,3 °C,610,13 °C,2 °C,3900,410,470,–,–,–,–
C[n+]1ccc(N2C(=O)c3ccc4c5c(ccc(c35)C2=O)C(=O)N(c2cc[n+](C)cc2)C4=O)cc1,-0.4 °C,-0.5,-0.2 °C,48700,-3.5 °C,0 °C,> 63900,> 63900,> 63900,> 1.31,–,–,–
C[n+]1ccc(CN2C(=O)c3ccc4c5c(ccc(c35)C2=O)C(=O)N(Cc2cc[n+](C)cc2)C4=O)cc1,13 °C,9,5 °C,980,20.1 °C,4.9 °C,490,14700,1560,0.49,0.31,0.033,–
O=C1c2ccc3c4c(ccc(c24)C(=O)N1CCCN1CCOCC1)C(=O)N(CCCN1CCOCC1)C3=O,7 °C,3.1,1 °C,570,2 °C,-7 °C,11900,5830,4320,20.8,2.75,3.81,–
O=C1c2ccc3c4c(ccc(c24)C(=O)N1c1ccc(N2CCOCC2)cc1)C(=O)N(c1ccc(N2CCOCC2)cc1)C3=O,–,–,–,14000,–,–,68400,46400,45400,4.88,1.5,1.47,–
C[n+]1ccc(-c2c3nc(c(-c4cc[n+](C)cc4)c4ccc([nH]4)c(-c4cc[n+](C)cc4)c4ccc([nH]4)c(-c4cc[n+](C)cc4)c4nc2C=C4)C=C3)cc1,–,–,–,–,–,–,–,–,–,–,–,–,ΔTm (Quadruplex DNA [10]): 27.5 °C; ΔTm (Quadruplex DNA [11]): 28.1 °C; ΔTm (Quadruplex DNA [12]): 34.2 °C; ΔTm [13]: 7.2 °C; ΔTm (Quadruplex DNA [14]): 28 °C
CN1CCN(C(C)(C)CN2C(=O)c3ccc4c5c(ccc(c35)C2=O)C(=O)N(CC(C)(C)N2CCN(C)CC2)C4=O)CC1,20.7 °C,4,0.2 °C,960,14.8 °C,10.2 °C,3380,4470,24600,3.5,0.14,0.76,–
CN1CCN(c2ccccc2N2C(=O)c3ccc4c5c(ccc(c35)C2=O)C(=O)N(c2ccccc2N2CCN(C)CC2)C4=O)CC1,1.6 °C and 1.9 °C,–,0.1 °C and -0.3 °C,–,0.9 °C and 2.3 °C,1.4 °C and 1.9 °C,1500,1210,–,–,–,1.23,IC50 (MRC5): 1230 nM; IC50 (HeLa; hela): 740 nM; IC50 (Leishmania major): 790 nM and 3110 nM; Ratio IC50 [4]: 30.69 and 10.53; IC50 (Trypanosoma brucei): 48 nM and 110 nM; Ratio IC50 [9]: 1.66
O=C1c2ccc3c4c(ccc(c24)C(=O)N1CC(c1ccccn1)N1CCOCC1)C(=O)N(CC(c1ccccn1)N1CCOCC1)C3=O (stereo unspecified),0.1 °C,0.7,0.3 °C,51700,0.1 °C,0.9 °C,83100,96900,> 100000,1.6,< 0.83,0.85,–
C[n+]1cc(N2C(=O)c3ccc4c5c(ccc(c35)C2=O)C(=O)N(c2cc3ccccc3[n+](C)c2)C4=O)cc2ccccc21,0.3 °C,-0.9,0.1 °C,19700,1.2 °C,0.4 °C,3410,64800,52100,0.17,0.065,0.053,–

# More lines, in order of falling IC50 (Trypanosoma brucei; Trypanosoma brucei, 72 h), values ahead:
ΔTm (Quadruplex DNA [2]),ΔTm (Quadruplex DNA [3]) [°C],ΔTm [5],"IC50 (Trypanosoma brucei; Trypanosoma brucei, 72 h) [nM]",ΔTm (Quadruplex DNA [7]),ΔTm (Quadruplex DNA [8]),SMILES,IC50 at 72 h [1] [nM],"IC50 (HeLa; Homo sapiens, HeLa, 72 h) [nM]",IC50 (Leishmania major; [15]) [nM],selectivity ratio [4],selectivity ratio [6],selectivity ratio [9],also measured
21.5 °C,12,2.7 °C,480,16 °C,11.3 °C,CN1CCN(CCN2C(=O)c3ccc4c5c(ccc(c35)C2=O)C(=O)N(CCN2CCN(C)CC2)C4=O)CC1,6780,1060,1680,14.2,4.04,6.4,–
18.5 °C,15.5,0.5 °C,420,15 °C,7.7 °C,CN1CCN(CC2(CN3C(=O)c4ccc5c6c(ccc(c46)C3=O)C(=O)N(CC3(CN4CCN(C)CC4)CC3)C5=O)CC2)CC1,1510,1770,12700,3.6,0.12,0.85,–
2 °C,3,0.5 °C,350,0.6 °C,1.4 °C,C[n+]1cccc2c(N3C(=O)c4ccc5c6c(ccc(c46)C3=O)C(=O)N(c3cccc4c3ccc[n+]4C)C5=O)cccc21,280,24200,1860,0.79,0.15,0.011,–
6.4 °C,4.6,0.1 °C,180,8 °C,5.8 °C,CN1CCN(c2cccc(N3C(=O)c4ccc5c6c(ccc(c46)C3=O)C(=O)N(c3cccc(N4CCN(C)CC4)c3)C5=O)c2)CC1,1480,470,330,7.91,4.41,3.09,–
–,–,–,170,–,–,O=C1c2ccc3c4c(ccc(c24)C(=O)N1c1ccccc1N1CCOCC1)C(=O)N(c1ccccc1N1CCOCC1)C3=O,7250,3090,9040,41.9,0.8,2.34,–
20.5 °C,17.5,1.7 °C,170,13.2 °C,9.2 °C,CC(CN1C(=O)c2ccc3c4c(ccc(c24)C1=O)C(=O)N(CC(C)N1CCN(C)CC1)C3=O)N1CCN(C)CC1 (stereo unspecified),1400,1680,8080,8.2,0.17,0.83,–
28.5 °C,24.8,4.5 °C,130,22 °C,18.8 °C,CC(CCN1C(=O)c2ccc3c4c(ccc(c24)C1=O)C(=O)N(CCC(C)N1CCN(C)CC1)C3=O)N1CCN(C)CC1 (stereo unspecified),1240,350,240,9.5,5.17,3.54,–
